One data set deals with IL-10. As to the kind of experiment: human IL-10 induction assay in PBMCs. The data set is classed as cell-based. Particulars: TPA/PHA treated human PBMCs, IL-10 immunoassay of supernatant. An excerpt: The evaluation of the novel compounds of the invention for psoriasis is done using the Keratinocyte Proliferation Assay in combination with other assays that measure inhibition of IL-2 production and stimulation of IL-10 production in peripheral blood mononuclear cells (PBMCs).
6. The IL-10 Induction Assay
This is an in vitro efficacy assay for psoriasis, abscess and adhesion. Psoriasis involves both keratinocytes and immune cells. IL-10 is a unique cytokine because it is anti-inflammatory and immunosuppressive. This assay tells us whether a VDRM is able to function as an agonist in PBMCs (primary blood mononuclear cells) or not. A lower EC50 value is desirable in this assay since a compound with a lower EC50 value will be a better agonist in PBMCs.
(6) Materials and Method for human IL-10 Induction Assay:
Isolation of peripheral blood mononuclear cells (PBMCs):
• A. Collect 50 ml of human blood and dilute with media, RPMI-1640. • B. Prepare sterile tubes with ficol. • C. Add diluted blood to tubes. • D. Centrifuge. • E. Discard the top layer and collect the cells from middle layer. • F. Divide all cells into four tubes and add media. • G. Centrifuge. • H. Aspirate off media and resuspend. • I. Collect all cells • J. Centrifuge. at 1200 rpm for 10 minutes. • K. Resuspend in RPMI-1640 with 2% FBS and count cells Stimulation of PBMC: • L. Prepare TPA in DMSO. • M. Dissolve PHA in water. • N. Plate TPA/PHA treated PBMCs in well plates. • O. Incubate. Treatment: • P. Prepare all compound dilutions in plain RPMI-1640 media. • Q. Add diluted compound. • R. Incubate. Sample Collection and assay: • S. Remove all the cells by centrifugation and assay the supernatant for IL-10 by immunoassay. • 1) T. Perform IL-10 assay using anti-human IL-10 antibody coated beads, as described by the manufacturer (Linco Research Inc., St. Charles, Mo.).

A further data set has as its system female DBF mice. As to the kind of experiment: Mouse hypercalcemia assay. Format: in vivo. Particulars: orally via gavage for 6 days; serum ionized calcium 6 hours after last dosing. An excerpt: 4. The Mouse Hypercalcemia Assay
(4) Materials and Method for The Mouse Hypercalcemia Assay: […]

Another data set concerns rat osteocalcin promoter. As to the kind of experiment: OCN (osteocalcin) promoter assay in RG-15 (ROS 17/2.8) cells. Particulars: 48 hr treatment, luciferase. Format: cell-based. The method, then: 3. The OCN (Osteocalcin) Promoter Assay
The OCN Promoter Assay is an indicator and marker for osteoporosis. […] Preferred assay results are less than 50 nM.
(3) Materials and Method for The OCN Promoter Assay:
The activation of osteocalcin by VDR ligands was evaluated in a rat osteoblast-like cell line RG-15 (ROS 17/2.8) stably expressing rat osteocalcin promoter fused with luciferase reporter gene. […] Confluent RG-15 cells maintained in DMEM/F-12 medium (3:1) containing 5% FBS, 300 μg/ml G418 and at 37° C. under 5% CO2/95% air atmosphere were trypsinized (0.25% trypsin) and plated into white opaque 96-well cell culture plates (25000 cells/well). After 24 hr, cells (in DMEM/F-12 medium+2% FBS) were treated with various concentrations of compounds, dissolved in DMSO. The final DMSO concentration remained at 0.01% (v/v). After 48 hr treatment, the medium was removed, cells were lysed with 50 μl of lysis buffer (From Luciferase reporter assay system, Roche Diagnostics, Indianapolis, Ind.) and assayed for luciferase activity using the Luciferase Reporter Gene Assay kit from Boehringer Mannheim as per manufacturer's specifications.

For data set [1], the system named is KERtr cells (Human skin keratinocyte). As to the kind of experiment: Keratinocyte proliferation assay. Format: cell-based. Particulars: BrdU incorporation, read-out: Kera. Prolif. IC50. The method, then:
5. The Keratinocyte Proliferation Assay
This Assay is indicative for the treatment of psoriasis.
(5) The Keratinocyte Proliferation Assay:
KERtr cells (Human skin keratinocyte transformed with a retrovirus vector, obtained from ATCC) were plated in 96-well flat-bottomed plates (3000 cells/well) in 100 μl keratinocyte serum free medium supplemented with bovine pituitary extract in the absence of EGF (Life Technologies, Rockville, Md.) and incubated at 37° C. for two days. The cells were treated with various concentrations of VDR ligands (ten-fold serial dilution from 10,000 nM to 0.1 nM in triplicate), dissolved in 100 μl keratinocyte serum free medium supplemented with bovine pituitary extract in the absence of EGF and incubated at 37° C. for 72 hr. BrdU (5-bromo-2′-deoxyuridine) incorporation was analyzed as a measure of DNA replication (Cell proliferation ELISA kit, Roche Diagnostics, Indianapolis, Ind.) and absorbance was measured at 405 nm. Potency values (IC50) values were determined as the concentration (nM) of compound that elicited a half-maximal response.
In general terms: Incorporation of labelled thymidine or its analogues reports DNA synthesis.

[2] abbreviates: Homo sapiens, Keratinocyte, 72 h.

pEC50, pIC50: −log10 of the molar value. Values joined by “and” are separate entries in the source; they are usually repeats but may differ in a detail not shown here. Identical values can stand only once. Like-named read-outs stand apart in the source and are kept apart here.

In the case of `CCC(CC)(c1ccc(OC(C)C(O)C(C)(C)C)c(C)c1)c1ccc(C(=O)O)c(C)c1` (single isomer, unassigned) [Ex. 11, 3′-[4-(2-hydroxy-1,3,3-trimethylbutoxy)-3-methylphenyl]-3′-[4-carboxyl-3-methylphenyl]pentane], the pIC50 (in general, −log10 of the IC50, conventionally taken in molar units) in the data set on IL-10 (Homo sapiens, PBMC) is 6.32; in data set [1] (setting [2]), 6.51. In addition, the “Mouse Hypercal” value with female DBF mice is 3000 µg/kg/day. The pEC50 (commonly −log10 of the EC50, conventionally taken in molar units) in the data set with rat osteocalcin promoter is 8.15.

Take `CCC(CC)(c1ccc(OCC(O)C(C)(C)C)c(C)c1)c1ccc(C(=O)Nc2nnn[nH]2)c(C)c1` (single isomer, unassigned) [Ex. 12a, 3′-[4-(2-hydroxy-3,3-dimethylbutoxy)-3-methylphenyl]-3′-[4-(tetrazol-5-ylaminocarbonyl)-3-methylphenyl]pentane]: the pIC50 in the data set on IL-10 (Homo sapiens, PBMC) was 7.28; in data set [1] (setting [2]), 8.40. Besides, in the data set with female DBF mice, the “Mouse Hypercal” value is 300 µg/kg/day. For the same molecule, the pEC50 in the data set with rat osteocalcin promoter was 9.00.

As for `CCC(CC)(c1ccc(OCC(O)C(C)(C)C)c(C)c1)c1ccc(C(=O)N(C)CC(=O)O)c(C)c1` (single isomer, unassigned) [Ex. 19, [(4-{1-Ethyl-1-[4-(2-hydroxy-3,3-dimethyl-butoxy)-3-methyl-phenyl]-propyl}-2-methyl-benzoyl)-methyl-amino]-acetic acid], the pIC50 is 6.85 in the data set on IL-10 and 7.09 in data set [1] (72 hr). Moreover, in the data set on female DBF mice, the “Mouse Hypercal” value is 2000 µg/kg/day. In addition, the pEC50 in the data set on rat osteocalcin promoter is 7.92 and 7.80.

For `CCC(CC)(c1ccc(OCC(O)C(C)(C)C)c(C)c1)c1ccc(C(=O)NCC(=O)O)c(C)c1` (single isomer, unassigned) [Ex. 25A, (4-{1-ethyl-1-[4-(2-hydroxy-3,3-dimethylbutoxy)-3-methylphenyl]-propyl}-2-methylbenzoylamino)acetic acid], the pIC50 in the data set with IL-10 is 7.40; in data set [1] (72 hr) it was 5.96. In the data set on female DBF mice, the “Mouse Hypercal” value is <300 µg/kg/day. Besides, the pEC50 in the data set on rat osteocalcin promoter was 9.40.

`CCC(CC)(c1ccc(OCC(O)C(C)(C)C)c(C)c1)c1ccc(C(=O)NCC(=O)O)c(C)c1` (single isomer, unassigned) [Ex. 25B, (4-{1-ethyl-1-[4-(2-hydroxy-3,3-dimethylbutoxy)-3-methylphenyl]-propyl}-2-methylbenzoylamino)acetic acid]: the pIC50 was 6.80 in the data set with IL-10 and 7.59 in data set [1] (72 hr). In the data set with female DBF mice, the “Mouse Hypercal” value is 1000 µg/kg/day. In addition, the pEC50 with rat osteocalcin promoter is 8.70 and 8.52.

In the case of `CCC(CC)(c1ccc(OCC(O)C(C)(C)C)c(C)c1)c1ccc(C(=O)Nc2nnn[nH]2)c(C)c1` (single isomer, unassigned) [Ex. 26, 3′-[4-(2-hydroxy-3,3-dimethylbutoxy)-3-methylphenyl]-3′-[4-(tetrazol-5-ylaminocarbonyl)-3-methylphenyl]pentane], the pIC50 was 7.28 in the data set on IL-10 and 8.40 in data set [1] (72 hr). For the same molecule, the “Mouse Hypercal” value in the data set on female DBF mice is 300 µg/kg/day. The pEC50 in the data set on rat osteocalcin promoter was 9.00.

With `CCC(CC)(c1ccc(OC(C)C(O)C(C)(C)C)c(C)c1)c1ccc(C(=O)Nc2nnn[nH]2)c(C)c1` (single isomer, unassigned) [Ex. 30, 3′-[4-(2-hydroxy-1,3,3-trimethylbutoxy)-3-methylphenyl]-3′-[4-(tetrazol-5-ylaminocarbonyl)-3-methylphenyl]pentane], the pIC50 in the data set with IL-10 is 6.91; in data set [1] (72 hr), 7.70. The “Mouse Hypercal” value with female DBF mice was 1000 µg/kg/day.

For `CCC(CC)(c1ccc(OC(C)C(O)C(C)(C)C)c(C)c1)c1ccc(C(=O)NCC(=O)O)c(C)c1` (single isomer, unassigned) [Ex. 31, 3′-[4-(2-hydroxy-1,3,3-trimethylbutoxy)-3-methylphenyl]-3′-[4-(carboxymethylaminocarbonyl)-3-methylphenyl]pentane], the pIC50 with IL-10 was 6.53; in data set [1] (72 hr), 7.68. Besides, the “Mouse Hypercal” value with female DBF mice was 3000 µg/kg/day. The pEC50 with rat osteocalcin promoter was 9.00.

With `CCC(CC)(c1ccc(OC(C)C(O)C(C)(C)C)c(C)c1)c1ccc(C(=O)NCC(=O)O)c(C)c1` (single isomer, unassigned) [Ex. 32, 3′-[4-(2-hydroxy-1,3,3-trimethylbutoxy)-3-methylphenyl]-3′-[4-(carboxymethylaminocarbonyl)-3-methylphenyl]pentane], the pIC50 in the data set on IL-10 was 6.97; in data set [1] (72 hr), 6.00. Besides, the “Mouse Hypercal” value in the data set with female DBF mice is 1000 µg/kg/day.

For `CCC(CC)(c1ccc(COCC(=O)O)c(C)c1)c1ccc(OCC(O)C(C)(C)C)c(C)c1` (single isomer, unassigned) [Ex. 33, (4-{1-ethyl-1-[4-(2-hydroxy-3,3-dimethyl-butoxy)-3-methyl-phenyl]-propyl}-2-methyl-benzyloxy)-acetic acid], the pIC50 in the data set on IL-10 (Homo sapiens, PBMC) is 7.72; in data set [1] (setting [2]) it was 8.22. The “Mouse Hypercal” value with female DBF mice was <300 µg/kg/day.

Consider `CCC(CC)(c1ccc(C(=O)O)cc1)c1ccc(OCC(O)C(C)(C)C)c(Cl)c1` (single isomer, unassigned) [Ex. 37, 3′-[3-chloro-4-(2-hydroxy-3,3-dimethylbutoxy)phenyl]-3′-[4-carboxyphenyl]pentane], for which the negative logarithm of the IC50 (pIC50) in the data set with IL-10 (Homo sapiens, PBMC) is 6.64; in data set [1] (72 hr), 7.26. The “Mouse Hypercal” value in the data set on female DBF mice was 1000 µg/kg/day. Also, in the data set on rat osteocalcin promoter, the pEC50 was 7.92.

With `CCC(CC)(c1ccc(-c2nnn[nH]2)cc1)c1ccc(OCC(O)C(C)(C)C)c(C)c1` (single isomer, unassigned) [Ex. 44, 1-(4-{1-Ethyl-1-[4-(1H-tetrazol-5-yl)-phenyl]-propyl}-2-methyl-phenoxy)-3,3-dimethyl-butan-2-ol], the pIC50 in the data set on IL-10 was 8.22; in data set [1] (setting [2]), 7.55. For the same molecule, in the data set with female DBF mice, the “Mouse Hypercal” value was <300 µg/kg/day. Besides, the pEC50 in the data set on rat osteocalcin promoter was 10.00.

As to `CCC(CC)(c1ccc(-c2nnn[nH]2)cc1)c1ccc(OCC(O)C(C)(C)C)c(C)c1` (single isomer, unassigned) [Ex. 45, 1-(4-{1-Ethyl-1-[4-(1H-tetrazol-5-yl)-phenyl]-propyl}-2-methyl-phenoxy)-3,3-dimethyl-butan-2-ol], the pIC50 in the data set with IL-10 is 7.82; in data set [1] (72 hr) it was 7.49. Besides, in the data set with female DBF mice, the “Mouse Hypercal” value was 300 µg/kg/day. Also, the pEC50 in the data set with rat osteocalcin promoter is 9.15.

In the case of `CCC(CC)(c1ccc(C(=O)O)cc1)c1ccc(OCC(=O)C(C)(C)C)c(C)c1` [Ex. 21, 4-{1-[4-(3,3-Dimethyl-2-oxo-butoxy)-3-methyl-phenyl]-1-ethyl-propyl}-benzoic acid], the pIC50 with IL-10 (Homo sapiens, PBMC) was 5.98; in data set [1] (setting [2]), 6.65. The “Mouse Hypercal” value in the data set with female DBF mice is 6000 µg/kg/day.

As for `CCC(CC)(c1ccc(OCC(O)C(C)(C)C)c(C)c1)c1ccc(C(=O)N[C@H](C)C(=O)O)c(C)c1` (stereo partly drawn) [Ex. 34, D-2-(4-{1-ethyl-1-[4-(2-hydroxy-3,3-dimethyl-butoxy)-3-methyl-phenyl]-propyl}-2-methyl-benzoylamino)-propionic acid], the pIC50 in the data set on IL-10 (Homo sapiens, PBMC) was 7.35; in data set [1] (setting [2]), 7.60. Also, the “Mouse Hypercal” value with female DBF mice is <300 µg/kg/day.

(Values after patent US7772425B2, “Vitamin D receptor modulators” (Eli Lilly and Company, priority 2002, dated 2010).)
